For 24 molecules, Ki results are on record in patent publication US9469615B2, “Quinoxalines and AZA-quinoxalines as CRTH2 receptor modulators” (Merck Sharp & Dohme Corp., priority 2010, dated 2016).

The structures appear in SMILES notation.

The assay addresses T1, hCRTH2 (Homo sapiens, UniProt Q9Y5Y4).
T1 construct: expressed in transfected cells; host or cells: HEK (human embryonic kidney) cells expressing hCRTH2; membrane preparation
T1 sequence (Q9Y5Y4 1-395): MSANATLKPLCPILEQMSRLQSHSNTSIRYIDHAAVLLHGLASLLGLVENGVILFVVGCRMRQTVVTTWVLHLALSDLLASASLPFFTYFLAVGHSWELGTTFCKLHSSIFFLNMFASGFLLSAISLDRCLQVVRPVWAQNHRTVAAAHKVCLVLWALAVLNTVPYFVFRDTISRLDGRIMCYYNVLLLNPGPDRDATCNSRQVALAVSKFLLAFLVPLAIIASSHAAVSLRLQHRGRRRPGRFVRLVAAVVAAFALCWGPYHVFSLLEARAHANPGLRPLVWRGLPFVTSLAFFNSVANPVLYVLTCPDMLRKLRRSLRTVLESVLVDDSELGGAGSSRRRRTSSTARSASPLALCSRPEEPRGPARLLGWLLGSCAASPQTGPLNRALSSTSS
As to the kind of experiment: Radioligand binding assay ([3H]PGD2 competition, HEK-hCRTH2 membranes). To be noted: [3H]PGD2 competition, Table B. The gist of the method: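 Displacement of 3.0 nM [3H]PGD2 from human CRTH2 expressed in HEK membranes was measured at room temperature over 60 min. Unlabelled PGD2 at 10 μM gave non-specific binding.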

On to `O=C(O)CCCCc1nc2cc(C(=O)N3CCN(c4ccccc4Cl)CC3)ccc2nc1-c1ccc(Cl)cc1` [compound 609, 5-(3-(4-chlorophenyl)-7-(4-(2-chlorophenyl)piperazine-1-carbonyl)quinoxalin-2-yl)pentanoic acid], for which the Ki is 0.1 to 2 nM.
As for `O=C(O)CCCCc1nc2cc(C(=O)N3CCN(c4cccc(C(F)(F)F)c4)CC3)ccc2nc1-c1ccc(Cl)cc1` [compound 610, 5-(3-(4-chlorophenyl)-7-(4-(3-(trifluoromethyl)phenyl)piperazine-1-carbonyl)quinoxalin-2-yl)pentanoic acid], the figure is 0.1 to 2 nM; as for `CCCCN(CCC)C(=O)c1ccc2nc(-c3ccc(Cl)cc3)c(CCCCC(=O)O)nc2c1` [compound 611, 5-(7-(butyl(propyl)carbamoyl)-3-(4-chlorophenyl)quinoxalin-2-yl)pentanoic acid], 2.1 to 20 nM; as for `O=C(O)CCCCc1nc2cc(C(=O)N[C@H]3CCOc4cc(F)ccc43)ccc2nc1-c1ccc(Cl)cc1` [compound 612, (S)-5-(3-(4-chlorophenyl)-7-((7-fluorochroman-4-yl)carbamoyl)quinoxalin-2-yl)pentanoic acid], 0.1 to 2 nM.
For `O=C(O)CCCCc1nc2cc(C(=O)N3CCO[C@@H](c4ccc(F)cc4)C3)ccc2nc1-c1ccc(Cl)cc1` [compound 613, (S)-5-(3-(4-chlorophenyl)-7-(2-(4-fluorophenyl)morpholine-4-carbonyl)quinoxalin-2-yl)pentanoic acid], the Ki was in the range of 20.1 to 200 nM.
`O=C(O)CCCCc1nc2cc(C(=O)N3CCO[C@H](c4ccc(F)cc4)C3)ccc2nc1-c1ccc(Cl)cc1` [compound 614, (R)-5-(3-(4-chlorophenyl)-7-(2-(4-fluorophenyl)morpholine-4-carbonyl)quinoxalin-2-yl)pentanoic acid] returned an inhibition constant Ki of 2.1 to 20 nM.
In the case of `O=C(O)CCCCc1nc2cc(C(=O)N3CCO[C@@H](c4ccc(C(F)(F)F)cc4)C3)ccc2nc1-c1ccc(Cl)cc1` [compound 615, (S)-5-(3-(4-chlorophenyl)-7-(2-(4-(trifluoromethyl)phenyl)morpholine-4-carbonyl)quinoxalin-2-yl)pentanoic acid] it was 2.1 to 20 nM; in that of `O=C(O)CCCCc1nc2cc(C(=O)N3CCO[C@H](c4ccc(C(F)(F)F)cc4)C3)ccc2nc1-c1ccc(Cl)cc1` [compound 616, (R)-5-(3-(4-chlorophenyl)-7-(2-(4-(trifluoromethyl)phenyl)morpholine-4-carbonyl)quinoxalin-2-yl)pentanoic acid], 20.1 to 200 nM; in that of `O=C(O)CCCCc1nc2cc(C(=O)N[C@@H]3CCCc4ccncc43)ccc2nc1-c1ccc(Cl)cc1` [compound 617], 0.1 to 2 nM.
As for `O=C(O)CCCCc1nc2cc(C(=O)N[C@H]3CCCc4ccncc43)ccc2nc1-c1ccc(Cl)cc1` [compound 618, (S)-5-(3-(4-chlorophenyl)-7-((5,6,7,8-tetrahydroisoquinolin-8-yl)carbamoyl)quinoxalin-2-yl)pentanoic acid], the figure is 0.1 to 2 nM.
`Cc1ccccc1N1CCN(C(=O)c2ccc3nc(-c4ccc(Cl)cc4)c(CCCCC(=O)O)nc3c2)CC1` [compound 619, 5-(3-(4-chlorophenyl)-7-(4-(o-tolyl)piperazine-1-carbonyl)quinoxalin-2-yl)pentanoic acid]: the Ki lay in the range of 0.1 to 2 nM.
`Cc1cccc(N2CCN(C(=O)c3ccc4nc(-c5ccc(Cl)cc5)c(CCCCC(=O)O)nc4c3)CC2)c1` [compound 620, 5-(3-(4-chlorophenyl)-7-(4-(m-tolyl)piperazine-1-carbonyl)quinoxalin-2-yl)pentanoic acid]: the Ki fell in the range of 0.1 to 2 nM.
`Cc1ccc(N2CCN(C(=O)c3ccc4nc(-c5ccc(Cl)cc5)c(CCCCC(=O)O)nc4c3)CC2)cc1C` [compound 621, 5-(3-(4-chlorophenyl)-7-(4-(3,4-dimethylphenyl)piperazine-1-carbonyl)quinoxalin-2-yl)pentanoic acid]: the Ki is 0.1 to 2 nM.
As for `COc1ccc(N2CCN(C(=O)c3ccc4nc(-c5ccc(Cl)cc5)c(CCCCC(=O)O)nc4c3)CC2)cc1` [compound 622, 5-(3-(4-chlorophenyl)-7-(4-(4-methoxyphenyl)piperazine-1-carbonyl)quinoxalin-2-yl)pentanoic acid], the figure is 2.1 to 20 nM; as for `N#Cc1ccc(N2CCN(C(=O)c3ccc4nc(-c5ccc(Cl)cc5)c(CCCCC(=O)O)nc4c3)CC2)cc1` [compound 623, 5-(3-(4-chlorophenyl)-7-(4-(4-cyanophenyl)piperazine-1-carbonyl)quinoxalin-2-yl)pentanoic acid], 2.1 to 20 nM; as for `O=C(O)CCCCc1nc2cc(C(=O)N3CCN(c4ccc(Cl)c(Cl)c4)CC3)ccc2nc1-c1ccc(Cl)cc1` [compound 624, 5-(3-(4-chlorophenyl)-7-(4-(3,4-dichlorophenyl)piperazine-1-carbonyl)quinoxalin-2-yl)pentanoic acid], 0.1 to 2 nM.
In the case of `CN(Cc1cccnc1)C(=O)c1ccc2nc(-c3ccc(Cl)cc3)c(CCCCC(=O)O)nc2c1` [compound 625, 5-(3-(4-chlorophenyl)-7-(methyl(pyridin-3-ylmethyl)carbamoyl)quinoxalin-2-yl)pentanoic acid] it was 2.1 to 20 nM.
As for `O=C(O)CCCCc1nc2cc(C(=O)N3CCC(n4c(=O)[nH]c5ccccc54)CC3)ccc2nc1-c1ccc(Cl)cc1` [compound 626, 5-(3-(4-chlorophenyl)-7-(4-(2-oxo-2,3-dihydro-1H-benzo[d]imidazol-1-yl)piperidine-1-carbonyl)quinoxalin-2-yl)pentanoic acid], the figure is 2.1 to 20 nM.
Turning to `Cc1cccc(N2CCN(C(=O)c3ccc4nc(-c5ccc(Cl)cc5)c(CCCCC(=O)O)nc4c3)CC2)c1C` [compound 627, 5-(3-(4-chlorophenyl)-7-(4-(2,3-dimethylphenyl)piperazine-1-carbonyl)quinoxalin-2-yl)pentanoic acid], the Ki lay in the range of 0.1 to 2 nM.
Consider `Cc1cccc(C)c1N1CCN(C(=O)c2ccc3nc(-c4ccc(Cl)cc4)c(CCCCC(=O)O)nc3c2)CC1` [compound 628, 5-(3-(4-chlorophenyl)-7-(4-(2,6-dimethylphenyl)piperazine-1-carbonyl)quinoxalin-2-yl)pentanoic acid], for which the inhibition constant Ki is 0.1 to 2 nM.
Regarding `Cc1ccc(C)c(N2CCN(C(=O)c3ccc4nc(-c5ccc(Cl)cc5)c(CCCCC(=O)O)nc4c3)CC2)c1` [compound 629, 5-(3-(4-chlorophenyl)-7-(4-(2,5-dimethylphenyl)piperazine-l-carbonyl)quinoxalin-2-yl)pentanoic acid], the Ki lay in the range of 0.1 to 2 nM.
As to `O=C(O)CCCCc1nc2cc(C(=O)N3C[C@@H]4C[C@H]3CN4Cc3ccccc3)ccc2nc1-c1ccc(Cl)cc1` [compound 630], the inhibition constant (Ki) lay within 2.1 to 20 nM.
As for `N#Cc1ccccc1N1CCN(C(=O)c2ccc3nc(-c4ccc(Cl)cc4)c(CCCCC(=O)O)nc3c2)CC1` [compound 631, 5-(3-(4-chlorophenyl)-7-(4-(2-cyanophenyl)piperazine-1-carbonyl)quinoxalin-2-yl)pentanoic acid], the figure is 0.1 to 2 nM; as for `COc1ccccc1C1CCN(C(=O)c2ccc3nc(-c4ccc(Cl)cc4)c(CCCCC(=O)O)nc3c2)CC1` [compound 632, 5-(3-(4-chlorophenyl)-7-(4-(2-methoxyphenyl)piperidine-1-carbonyl)quinoxalin-2-yl)pentanoic acid], 0.1 to 2 nM.
